For the assay, the system named is AAMU-Ab. Put plainly: Competitive antigen ELISA, cross-reactivity of AAMU-Ab. The class given is binding, rabbit. The following applies: 0 = absence of inhibition or inhibition no higher than 40% at highest concentration tested (5 × 10^−3 M). As for the experimental part:
Competitive Antigen ELISA
Buffers and water without additives are filtered through millipore filters and kept for 1 week. BSA, antibodies, Tween™ 20 and horse radish peroxidase conjugates are added to these buffers and water just prior to use. Urine samples are usually collected 4 hours after drinking a cup of coffee (instant or brewed with approximately 100 mg of caffeine per cup) and stored at −80° C. The urine samples are diluted 10 times with sodium phosphate buffer (620 mosm, pH 7.50) and are subsequently diluted with water to give concentrations of AAMU and 1× no higher than 3×10^−6 M in the ELISA. All the pipettings are done with an eight-channel pipette, except those of the antibody and sample solutions. Starting with the last well, 100 μL of a carbonate buffer (100 mM, pH 9.6) containing 2.5 μg mL^−1 antibodies are added to each well. After 90 min. at room temperature, the wells are washed three times with […] of TPB: isotonic sodium phosphate buffer (310 mosm, pH 7.50) containing 0.05% Tween™ 20.
After the initial wash, unoccupied sites are blocked by incubation for 90 min. at room temperature with 100 μL TBP containing 3% BSA. The wells are washed four times with 100 μL TPB. […] The microplate is gently shaken with an orbital shaker at room temperature for 3-4 hours. […]
Background: ELISA stands for enzyme-linked immunosorbent assay.

Each structure is given as a SMILES string.

With `O=c1[nH]c(=O)c2[nH]cnc2[nH]1` [Xanthine], the “% Cross-Reaction AAMU-Ab” value stood at 0a %.

Source of the values: patent publication US20030170176A1, “Individualization of therapy with antipsychotics” (McGill University, priority 2001, published 2003).
